Results as given in ChEMBL document CHEMBL1201862, “PubChem BioAssay data set” (2004).
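Cultured in 96-well plates, cells were exposed to test compound for 48 hours across five concentrations. GI50 is the concentration that inhibits growth by half.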 Active and inactive are the calls of the source. Cut-off read from the data, not from the text of the source: active = GI50 up to about 1.1 µM and inactive = higher.

Assays:
Experiment in all cases: NCI-60 cell line screen, 48 h
NCI-H226 = system: NCI-H226
M14 = system: M14
RXF 631 = system: RXF 631
M19-MEL = system: M19-MEL
COLO 205 = system: COLO 205
OVCAR-8 = system: OVCAR-8
786-0 = system: 786-0
SK-MEL-28 = system: SK-MEL-28
SNB-19 = system: SNB-19
SF-295 = system: SF-295
HCC 2998 = system: HCC 2998
Malme-3M = system: Malme-3M
OVCAR-4 = system: OVCAR-4
LXFL 529 = system: LXFL 529
SK-MEL-2 = system: SK-MEL-2
ACHN = system: ACHN
U-251 = system: U-251
KM-20L2 = system: KM-20L2
RPMI-8226 = system: RPMI-8226
HOP-62 = system: HOP-62
SNB-78 = system: SNB-78
SK-OV-3 = system: SK-OV-3
HL-60 = system: HL-60
SNB-75 = system: SNB-75
OVCAR-3 = system: OVCAR-3
SF-268 = system: SF-268
DMS-273 = system: DMS-273
SW-620 = system: SW-620
A498 = system: A498
XF498 = system: XF498
HOP-18 = system: HOP-18
DLD-1 = system: DLD-1
NCI-H23 = system: NCI-H23
DMS-114 = system: DMS-114
UACC-62 = system: UACC-62
HOP-92 = system: HOP-92
SF-539 = system: SF-539
K562 = system: K562
HCT-116 = system: HCT-116
IGROV-1 = system: IGROV-1
UACC-257 = system: UACC-257
SN12C = system: SN12C
SK-MEL-5 = system: SK-MEL-5
MOLT-4 = system: MOLT-4
HT-29 = system: HT-29
LOX IMVI = system: LOX IMVI
EKVX = system: EKVX
A549 = system: A549
NCI-H522 = system: NCI-H522
TK-10 = system: TK-10
SR = system: SR
NCI-H460 = system: NCI-H460
KM12 = system: KM12
RXF 393 = system: RXF 393
UO-31 = system: UO-31
OVCAR-5 = system: OVCAR-5
CCRF-CEM = system: CCRF-CEM
HCT-15 = system: HCT-15
CAKI-1 = system: CAKI-1

`O=C(/C=C/c1c(O)ccc2ccccc12)c1ccccc1` was tested, and the GI50 (NCI-H226) was > 100 µM (inactive), the GI50 (M14) was > 100 µM (inactive) and the GI50 (RXF 631) was > 100 µM (inactive). For the same compound, the GI50 (M19-MEL) was 29.4 µM (inactive), the GI50 (COLO 205) was > 100 µM (inactive) and the GI50 (OVCAR-8) was > 100 µM (inactive). The GI50 (786-0) was 63.5 µM (inactive), the GI50 (SK-MEL-28) was > 100 µM (inactive) and the GI50 (SNB-19) was > 100 µM (inactive). The GI50 (SF-295) was > 100 µM (inactive), the GI50 (HCC 2998) was > 100 µM (inactive) and the GI50 (Malme-3M) was > 100 µM (inactive). The GI50 (OVCAR-4) was > 100 µM (inactive), the GI50 (LXFL 529) was > 100 µM (inactive) and the GI50 (SK-MEL-2) was > 100 µM (inactive). For the same compound, the GI50 (ACHN) was > 100 µM (inactive), the GI50 (U-251) was > 100 µM (inactive) and the GI50 (KM-20L2) was > 100 µM (inactive). The GI50 (RPMI-8226) was 27 µM (inactive), the GI50 (HOP-62) was > 100 µM (inactive) and the GI50 (SNB-78) was > 100 µM (inactive). For the same compound, the GI50 (SK-OV-3) was > 100 µM (inactive), the GI50 (HL-60) was 35.7 µM (inactive) and the GI50 (SNB-75) was 0.413 µM (active). For the same compound, the GI50 (OVCAR-3) was > 100 µM (inactive), the GI50 (SF-268) was > 100 µM (inactive) and the GI50 (DMS-273) was > 100 µM (inactive). The GI50 (SW-620) was 22.5 µM (inactive), the GI50 (A498) was > 100 µM (inactive) and the GI50 (XF498) was > 100 µM (inactive). For the same compound, the GI50 (HOP-18) was 36.8 µM (inactive), the GI50 (DLD-1) was 85.7 µM (inactive) and the GI50 (NCI-H23) was 95.7 µM (inactive). The GI50 (DMS-114) was > 100 µM (inactive), the GI50 (UACC-62) was > 100 µM (inactive) and the GI50 (HOP-92) was > 100 µM (inactive). For the same compound, the GI50 (SF-539) was > 100 µM (inactive), the GI50 (K562) was 58.5 µM (inactive) and the GI50 (HCT-116) was > 100 µM (inactive). The GI50 (IGROV-1) was > 100 µM (inactive), the GI50 (UACC-257) was > 100 µM (inactive) and the GI50 (SN12C) was > 100 µM (inactive). For the same compound, the GI50 (SK-MEL-5) was > 100 µM (inactive), the GI50 (MOLT-4) was > 100 µM (inactive) and the GI50 (HT-29) was 15.7 µM (inactive). The GI50 (LOX IMVI) was 19.3 µM (inactive), the GI50 (EKVX) was > 100 µM (inactive) and the GI50 (A549) was > 100 µM (inactive). For the same compound, the GI50 (NCI-H522) was > 100 µM (inactive), the GI50 (TK-10) was > 100 µM (inactive) and the GI50 (SR) was > 100 µM (inactive). For the same compound, the GI50 (NCI-H460) was > 100 µM (inactive), the GI50 (KM12) was > 100 µM (inactive) and the GI50 (RXF 393) was > 100 µM (inactive). For the same compound, the GI50 (UO-31) was > 100 µM (inactive), the GI50 (OVCAR-5) was > 100 µM (inactive) and the GI50 (CCRF-CEM) was 35.6 µM (inactive). The GI50 (HCT-15) was > 100 µM and the GI50 (CAKI-1) was > 100 µM (inactive).
